# Test results reported in patent publication US20240024488A1, “COMPOUNDS AND USES THEREOF” (Foghorn Therapeutics Inc., priority 2020, published 2024).
# Assays:
# [1] = target: T1, HiBit-BRG1 fusion protein (Homo sapiens, UniProt P51532); assay: HiBiT-BRG1 cell-based degradation assay (Nano-Glo HiBiT Lytic Detection, 24 h); settings: HeLa cell line expressing HiBit-BRG1 and LgBit; for Dmax: read-out: BRG1 HiBit Degradation Maximum (%); for DC50: read-out: BRMG1 HiBit Degradation IC50
# T1 construct: expressed in transfected cells
# T1 sequence (P51532 whole entry, the tested form may be a part): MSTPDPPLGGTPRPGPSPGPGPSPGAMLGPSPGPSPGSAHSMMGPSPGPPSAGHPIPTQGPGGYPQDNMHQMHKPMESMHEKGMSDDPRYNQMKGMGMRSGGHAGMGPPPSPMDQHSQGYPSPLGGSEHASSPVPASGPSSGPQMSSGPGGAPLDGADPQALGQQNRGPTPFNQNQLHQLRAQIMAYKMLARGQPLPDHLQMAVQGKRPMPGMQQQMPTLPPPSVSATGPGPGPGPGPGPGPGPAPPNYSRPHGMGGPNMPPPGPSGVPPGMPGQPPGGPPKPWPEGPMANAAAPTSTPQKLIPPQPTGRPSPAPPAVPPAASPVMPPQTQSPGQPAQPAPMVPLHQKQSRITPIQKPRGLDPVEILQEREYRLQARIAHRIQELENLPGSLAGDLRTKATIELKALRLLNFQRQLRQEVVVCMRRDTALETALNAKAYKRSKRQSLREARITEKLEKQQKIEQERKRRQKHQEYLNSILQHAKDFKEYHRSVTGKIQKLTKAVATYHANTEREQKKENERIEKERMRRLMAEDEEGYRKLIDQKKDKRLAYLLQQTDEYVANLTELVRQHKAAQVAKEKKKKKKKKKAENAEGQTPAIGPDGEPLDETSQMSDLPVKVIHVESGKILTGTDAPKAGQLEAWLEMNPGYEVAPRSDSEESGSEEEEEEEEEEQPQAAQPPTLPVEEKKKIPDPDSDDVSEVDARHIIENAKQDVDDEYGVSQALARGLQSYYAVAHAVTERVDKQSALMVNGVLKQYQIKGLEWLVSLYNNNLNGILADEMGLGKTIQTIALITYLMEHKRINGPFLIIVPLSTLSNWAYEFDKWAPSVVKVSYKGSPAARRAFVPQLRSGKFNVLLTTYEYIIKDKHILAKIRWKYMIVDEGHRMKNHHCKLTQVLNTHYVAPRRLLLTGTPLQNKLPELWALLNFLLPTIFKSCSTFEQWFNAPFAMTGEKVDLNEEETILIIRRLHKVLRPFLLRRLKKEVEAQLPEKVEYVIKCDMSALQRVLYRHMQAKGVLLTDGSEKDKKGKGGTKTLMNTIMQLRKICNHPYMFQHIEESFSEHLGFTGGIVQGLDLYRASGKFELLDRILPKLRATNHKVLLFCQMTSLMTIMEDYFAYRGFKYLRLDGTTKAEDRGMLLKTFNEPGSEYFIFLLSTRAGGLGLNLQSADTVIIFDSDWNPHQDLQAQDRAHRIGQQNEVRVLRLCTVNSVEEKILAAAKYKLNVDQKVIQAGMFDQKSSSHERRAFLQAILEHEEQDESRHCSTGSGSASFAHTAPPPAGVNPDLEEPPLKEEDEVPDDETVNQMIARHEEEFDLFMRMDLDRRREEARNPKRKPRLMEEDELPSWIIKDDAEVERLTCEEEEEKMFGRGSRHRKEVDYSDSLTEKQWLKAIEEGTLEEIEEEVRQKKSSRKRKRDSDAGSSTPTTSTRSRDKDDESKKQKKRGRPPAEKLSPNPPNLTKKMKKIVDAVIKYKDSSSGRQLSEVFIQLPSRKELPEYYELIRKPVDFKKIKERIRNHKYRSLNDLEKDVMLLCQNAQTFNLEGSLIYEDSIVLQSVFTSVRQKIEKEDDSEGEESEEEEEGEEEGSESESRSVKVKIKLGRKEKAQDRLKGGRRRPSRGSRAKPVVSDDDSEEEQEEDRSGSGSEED
# Summary of the method: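 Luminescence from reconstituted NanoBiT luciferase after lytic detection served as read-out of remaining HiBit-BRG1 in stable HeLa cells, which also express LgBit. Cells were seeded at 5000 per well and incubated with compound for 24 h. DMSO and a 2 μM known degrader defined the control range.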
# HiBit-BRM fusion protein = target: T2, HiBit-BRM fusion protein (Homo sapiens, UniProt P51531); assay: HiBiT-BRM cell-based degradation assay (Nano-Glo HiBiT Lytic Detection, 24 h); settings: HeLa cell line expressing HiBiT-BRM; for DC50: read-out: BRM HiBit Degradation IC50
# T2 construct: expressed in transfected cells
# T2 sequence (P51531 whole entry, the tested form may be a part): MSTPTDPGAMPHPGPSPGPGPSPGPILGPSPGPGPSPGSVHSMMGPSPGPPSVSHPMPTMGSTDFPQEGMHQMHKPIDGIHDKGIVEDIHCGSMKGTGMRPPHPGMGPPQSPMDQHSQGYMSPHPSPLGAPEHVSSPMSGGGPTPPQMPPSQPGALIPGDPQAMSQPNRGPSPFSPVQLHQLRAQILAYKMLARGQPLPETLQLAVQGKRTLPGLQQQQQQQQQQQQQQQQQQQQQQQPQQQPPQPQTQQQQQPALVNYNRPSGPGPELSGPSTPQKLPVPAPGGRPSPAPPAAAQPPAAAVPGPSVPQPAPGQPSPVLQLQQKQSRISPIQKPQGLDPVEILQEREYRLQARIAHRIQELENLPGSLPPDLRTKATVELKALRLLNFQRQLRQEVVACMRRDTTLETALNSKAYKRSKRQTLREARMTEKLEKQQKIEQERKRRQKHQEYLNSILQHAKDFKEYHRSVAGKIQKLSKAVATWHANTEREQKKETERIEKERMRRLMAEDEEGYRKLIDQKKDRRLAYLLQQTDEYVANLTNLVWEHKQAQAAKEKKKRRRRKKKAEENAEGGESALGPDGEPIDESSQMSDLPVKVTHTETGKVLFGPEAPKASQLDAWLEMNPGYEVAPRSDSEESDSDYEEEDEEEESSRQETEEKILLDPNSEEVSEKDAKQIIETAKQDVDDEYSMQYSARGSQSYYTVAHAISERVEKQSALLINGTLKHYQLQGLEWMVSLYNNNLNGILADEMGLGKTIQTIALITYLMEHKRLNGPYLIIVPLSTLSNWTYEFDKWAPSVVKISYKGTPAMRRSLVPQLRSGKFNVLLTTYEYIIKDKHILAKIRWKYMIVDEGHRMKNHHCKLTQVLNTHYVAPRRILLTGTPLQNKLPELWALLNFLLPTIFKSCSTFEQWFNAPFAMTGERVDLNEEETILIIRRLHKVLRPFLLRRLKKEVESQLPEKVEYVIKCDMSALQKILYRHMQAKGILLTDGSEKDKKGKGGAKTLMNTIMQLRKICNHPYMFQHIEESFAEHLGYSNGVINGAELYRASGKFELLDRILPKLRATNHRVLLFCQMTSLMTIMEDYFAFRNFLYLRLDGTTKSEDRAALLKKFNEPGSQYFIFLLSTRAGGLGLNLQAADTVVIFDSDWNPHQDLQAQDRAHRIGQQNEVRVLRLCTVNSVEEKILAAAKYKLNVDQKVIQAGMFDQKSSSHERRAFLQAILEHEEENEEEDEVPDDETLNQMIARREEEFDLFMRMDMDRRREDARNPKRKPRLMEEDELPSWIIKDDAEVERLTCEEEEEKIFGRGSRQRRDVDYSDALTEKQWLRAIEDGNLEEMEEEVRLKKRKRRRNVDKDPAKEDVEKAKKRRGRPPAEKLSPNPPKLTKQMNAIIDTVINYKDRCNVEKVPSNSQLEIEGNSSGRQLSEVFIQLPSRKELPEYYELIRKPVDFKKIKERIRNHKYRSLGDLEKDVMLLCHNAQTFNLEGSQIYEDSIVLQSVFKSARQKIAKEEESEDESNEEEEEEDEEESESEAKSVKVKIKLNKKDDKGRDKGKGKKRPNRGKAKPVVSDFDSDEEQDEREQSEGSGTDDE
# Summary of the method: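 HeLa cells stably expressing HiBiT-BRM were treated for 24 h with compounds (10-point 3-fold dilutions, 30 μM final top dose, in duplicate). HiBiT was detected by lytic LgBiT complementation luminescence. % degradation was normalized to DMSO (high control) and 2 μM of a reference BRM/BRG1 degrader (low control).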
Dmax [1] [%],DC50 [1] [nM],DC50 (HiBit-BRM fusion protein) [nM],SMILES,BRM HiBit Degradation Maximum (%) (HiBit-BRM fusion protein)
> 75,> 100,> 10,"Cc1ncsc1-c1ccc([C@H](C)NC(=O)[C@@H]2C[C@@H](O)CN2C(=O)[C@@H](c2cc(OCCN3CC4(CC(c5c[nH]c6nnc(-c7ccccc7O)cc56)C4)C3)no2)C(C)C)cc1 (racemic) [Compound 304, (2S,4R)-4-hydroxy-1-((R)-2-(3-(2-(6-(3-(2-hydroxyphenyl)-7H-pyrrolo[2,3-c]pyridazin-5-yl)-2-azaspiro[3.3]heptan-2-yl)ethoxy)isoxazol-5-yl)-3-methylbutanoyl)-N-((S)-1-(4-(4-methylthiazol-5-yl)phenyl)ethyl)pyrrolidine-2-carboxamide]",A (“A” indicates maximum degradation ≥ 75%)
< 50,,> 1000,"Cc1ncsc1-c1ccc([C@H](C)NC(=O)[C@@H]2C[C@@H](O)CN2C(=O)[C@@H](c2cc(OCC(=O)N3CC(c4cc5cc(-c6ccccc6O)nnc5[nH]4)C3)no2)C(C)C)cc1 (racemic) [Compound 305, (2S,4R)-4-hydroxy-1-((R)-2-(3-(2-(3-(3-(2-hydroxyphenyl)-7H-pyrrolo[2,3-c]pyridazin-6-yl)azetidin-1-yl)-2-oxoethoxy)isoxazol-5-yl)-3-methylbutanoyl)-N-((S)-1-(4-(4-methylthiazol-5-yl)phenyl)ethyl)pyrrolidine-2-carboxamide]",A (“A” indicates maximum degradation ≥ 75%)
< 50,,,"Cc1ncsc1-c1ccc(CNC(=O)[C@@H]2C[C@@H](O)CN2C(=O)[C@@H](NC(=O)C(=O)N2CC(c3cc4cc(-c5ccccc5O)nnc4[nH]3)C2)C(C)(C)C)cc1 (racemic) [Compound 306, (2S,4R)-4-hydroxy-1-((S)-2-(2-(3-(3-(2-hydroxyphenyl)-7H-pyrrolo[2,3-c]pyridazin-6-yl)azetidin-1-yl)-2-oxoacetamido)-3,3-dimethylbutanoyl)-N-(4-(4-methylthiazol-5-yl)benzyl)pyrrolidine-2-carboxamide]",C (“C” indicates maximum degradation < 50%)
> 75,> 10,< 10,"Cc1ncsc1-c1ccc([C@H](C)NC(=O)[C@@H]2C[C@@H](O)CN2C(=O)[C@@H](c2cc(OCCN3CC(c4[nH]c5nnc(-c6ccccc6O)cc5c4C)C3)no2)C(C)C)cc1 (racemic) [Compound 307, (2S,4R)-4-hydroxy-1-((R)-2-(3-(2-(3-(3-(2-hydroxyphenyl)-5-methyl-7H-pyrrolo[2,3-c]pyridazin-6-yl)azetidin-1-yl)ethoxy)isoxazol-5-yl)-3-methylbutanoyl)-N-((S)-1-(4-(4-methylthiazol-5-yl)phenyl)ethyl)pyrrolidine-2-carboxamide]",A (“A” indicates maximum degradation ≥ 75%)
> 75,> 10,< 10,"Cc1ncsc1-c1ccc([C@H](C)NC(=O)[C@@H]2C[C@@H](O)CN2C(=O)[C@@H](c2cc(OCCN3C[C@@H]4[C@H](C3)[C@H]4c3cc4cc(-c5ccccc5O)nnc4[nH]3)no2)C(C)C)cc1 (racemic) [Compound 308, (2S,4R)-4-hydroxy-1-((R)-2-(3-(2-((1R,5S,6R)-6-(3-(2-hydroxyphenyl)-7H-pyrrolo[2,3-c]pyridazin-6-yl)-3-azabicyclo[3.1.0]hexan-3-yl)ethoxy)isoxazol-5-yl)-3-methylbutanoyl)-N-((S)-1-(4-(4-methylthiazol-5-yl)phenyl)ethyl)pyrrolidine-2-carboxamide]",A (“A” indicates maximum degradation ≥ 75%)
< 50,,> 1000,"Cc1ncsc1-c1ccc([C@H](C)NC(=O)[C@@H]2C[C@@H](O)CN2C(=O)C(c2cc(OCCNC3(C(=O)O)CCc4[nH]c5nnc(-c6ccccc6O)cc5c4C3)no2)C(C)C)cc1 (relative stereo) [Compound 90, (6R*)-6-({2-[(5-{1-[(2S,4R)-4-hydroxy-2-{[(1S)-1-[4-(4-methyl-1,3-thiazol-5-yl)phenyl]ethyl]carbamoyl}pyrrolidin-1-yl]-3-methyl-1-oxobutan-2-yl}-1,2-oxazol-3-yl)oxy]ethyl}amino)-3-(2-hydroxyphenyl)-5H,7H,8H,9H-pyridazino[3,4-b]indole-6-carboxylic acid]",A (“A” indicates maximum degradation ≥ 75%)
< 50,,> 100,"Cc1ncsc1-c1ccc([C@H](C)NC(=O)[C@@H]2C[C@@H](O)CN2C(=O)[C@@H](c2cc(C3CCN(C(=O)[C@@]4(N)CCc5[nH]c6nnc(-c7ccccc7O)cc6c5C4)CC3)no2)C(C)C)cc1 (relative stereo) [Compound 103, (2S,4R)-1-[(2R)-2-(3-{1-[(6R*)-6-amino-3-(2-hydroxyphenyl)-5H,7H,8H,9H-pyridazino[3,4-blindole-6-carbonyl]piperidin-4-yl}-1,2-oxazol-5-yl)-3-methylbutanoyl]-4-hydroxy-N-[(1S)-1-[4-(4-methyl-1,3-thiazol-5-yl)phenyl]ethyl]pyrrolidine-2-carboxamide]",B (“B” indicates maximum degradation ≥ 50%)
< 50,,> 100,"Cc1ncsc1-c1ccc([C@H](C)NC(=O)[C@@H]2C[C@@H](O)CN2C(=O)[C@@H](c2cc(C3CCN(C(=O)[C@]4(N)CCc5[nH]c6nnc(-c7ccccc7O)cc6c5C4)CC3)no2)C(C)C)cc1 (relative stereo) [Compound 104, (2S,4R)-1-[(2R)-2-(3-{1-[(6R*)-6-amino-3-(2-hydroxyphenyl)-5H,7H,8H,9H-pyridazino[3,4-blindole-6-carbonyl]piperidin-4-yl}-1,2-oxazol-5-yl)-3-methylbutanoyl]-4-hydroxy-N-[(1S)-1-[4-(4-methyl-1,3-thiazol-5-yl)phenyl]ethyl]pyrrolidine-2-carboxamide]",B (“B” indicates maximum degradation ≥ 50%)
> 75,> 100,> 100,"Cc1ncsc1-c1ccc([C@H](C)NC(=O)[C@@H]2C[C@@H](O)CN2C(=O)[C@@H](c2cc(C3CN(C(=O)[C@H]4CCc5[nH]c6nnc(-c7ccccc7O)cc6c5C4)C3)no2)C(C)C)cc1 (relative stereo) [Compound 157, (2S,4R)-4-hydroxy-1-[(2R*)-2-(3-{1-[(6R**)-3-(2-hydroxyphenyl)-5H,6H,7H,8H,9H-pyridazino[3,4-b]indole-6-carbonyl]azetidin-3-yl}-1,2-oxazol-5-yl)-3-methylbutanoyl]-N-[(1S)-1-[4-(4-methyl-1,3-thiazol-5-yl)phenyl]ethyl]pyrrolidine-2-carboxamide]",A (“A” indicates maximum degradation ≥ 75%)
< 50,,> 1000,"Cc1ncsc1-c1ccc(CNC(=O)[C@@H]2C[C@@H](O)CN2C(=O)[C@@H](NC(=O)CCC(=O)N[C@H]2CCc3[nH]c4nnc(-c5ccccc5O)cc4c3C2)C(C)(C)C)cc1 (relative stereo) [Compound 174, N1-((S)-1-((2S,4R)-4-hydroxy-2-((4-(4-methylthiazol-5-yl)benzyl)carbamoyl)pyrrolidin-1-yl)-3,3-dimethyl-1-oxobutan-2-yl)-N4-((S)-3-(2-hydroxyphenyl)-6,7,8,9-tetrahydro-5H-pyridazino[3,4-b]indol-6-yl)succinamide]",B (“B” indicates maximum degradation ≥ 50%)
< 50,,> 1000,"Cc1ncsc1-c1ccc(CNC(=O)[C@@H]2C[C@@H](O)CN2C(=O)[C@@H](NC(=O)CCCCC(=O)N[C@H]2CCc3[nH]c4nnc(-c5ccccc5O)cc4c3C2)C(C)(C)C)cc1 (relative stereo) [Compound 175, N1-((S)-1-((2S,4R)-4-hydroxy-2-((4-(4-methylthiazol-5-yl)benzyl)carbamoyl)pyrrolidin-1-yl)-3,3-dimethyl-1-oxobutan-2-yl)-N6-((S)-3-(2-hydroxyphenyl)-6,7,8,9-tetrahydro-5H-pyridazino[3,4-b]indol-6-yl)adipamide]",A (“A” indicates maximum degradation ≥ 75%)
> 75,> 100,> 10,"Cc1ncsc1-c1ccc([C@H](C)NC(=O)[C@@H]2C[C@@H](O)CN2C(=O)[C@@H](c2cc(-c3cnc(N4CCc5[nH]c6nnc(-c7ccccc7O)cc6c5C4)nc3)no2)C(C)C)cc1 (single isomer, unassigned) [Compound 85]",A (“A” indicates maximum degradation ≥ 75%)
< 50,,,"Cc1ncsc1-c1ccc([C@H](C)NC(=O)[C@@H]2C[C@@H](O)CN2C(=O)C(c2cc(OCC(=O)N[C@@]3(C(=O)O)CCc4[nH]c5nnc(-c6ccccc6O)cc5c4C3)no2)C(C)C)cc1 (single isomer, unassigned) [Compound 88]",C (“C” indicates maximum degradation < 50%)
< 50,,,"Cc1ncsc1-c1ccc([C@H](C)NC(=O)[C@@H]2C[C@@H](O)CN2C(=O)C(c2cc(OCC(=O)N[C@]3(C(=O)O)CCc4[nH]c5nnc(-c6ccccc6O)cc5c4C3)no2)C(C)C)cc1 (single isomer, unassigned) [Compound 89]",C (“C” indicates maximum degradation < 50%)
< 50,,,"Cc1ncsc1-c1ccc([C@H](C)NC(=O)[C@@H]2C[C@@H](O)CN2C(=O)C(c2cc(OCCN[C@]3(C(=O)O)CCc4[nH]c5nnc(-c6ccccc6O)cc5c4C3)no2)C(C)C)cc1 (single isomer, unassigned) [Compound 91]",C (“C” indicates maximum degradation < 50%)
